Our source for the EC50 values is patent US20200055817A1 (AbbVie Deutschland GmbH & Co. KG, priority 2016, published 2020).

A value given as a limit tells only on which side of the number the result lay.

Common to all, as to type: cell-based
Experiment [1] addresses T1, S1P4 (Homo sapiens, UniProt O95977).
T1 sequence (O95977 1-384): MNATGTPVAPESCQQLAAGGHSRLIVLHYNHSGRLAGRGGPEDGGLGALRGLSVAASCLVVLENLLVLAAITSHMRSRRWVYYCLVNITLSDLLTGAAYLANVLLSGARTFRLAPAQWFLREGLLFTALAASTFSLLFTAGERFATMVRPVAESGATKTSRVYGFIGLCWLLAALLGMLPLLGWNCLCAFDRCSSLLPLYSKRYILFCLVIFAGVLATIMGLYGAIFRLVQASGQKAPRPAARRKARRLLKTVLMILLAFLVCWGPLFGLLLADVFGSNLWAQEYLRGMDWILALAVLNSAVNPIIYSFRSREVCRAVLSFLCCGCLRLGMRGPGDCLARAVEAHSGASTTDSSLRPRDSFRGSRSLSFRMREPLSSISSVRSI
Description: Aequorin assay, agonist potency, S1P4. To be noted: agonist mode, aequorin luminescence. The essentials:
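Aequorin luminescence read over 90 s after adding coelenterazine h–loaded cells (5 μM, overnight, RT) to test compound in phenol red-free DMEM/F12 buffer containing 0.1% fatty acid-free BSA. Responses integrated, scaled to the 100% signal from 100 μM digitonin or 20 μM ATP, and fitted to a sigmoidal dose-response model.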

In experiment [2] the target is T2, human EDG8 (S1PR5) receptor (Homo sapiens, UniProt Q9H228).
T2 construct: carries the transgenes human EDG8 (S1PR5) receptor (Acession number NP_110387.1); expressed in transfected cells; host or cells: CHO-A21-EDG8#12 (CHO clone co-expressing mitochondrial aequorin and chimaeric Gaqi5)
T2 sequence (Q9H228 whole entry): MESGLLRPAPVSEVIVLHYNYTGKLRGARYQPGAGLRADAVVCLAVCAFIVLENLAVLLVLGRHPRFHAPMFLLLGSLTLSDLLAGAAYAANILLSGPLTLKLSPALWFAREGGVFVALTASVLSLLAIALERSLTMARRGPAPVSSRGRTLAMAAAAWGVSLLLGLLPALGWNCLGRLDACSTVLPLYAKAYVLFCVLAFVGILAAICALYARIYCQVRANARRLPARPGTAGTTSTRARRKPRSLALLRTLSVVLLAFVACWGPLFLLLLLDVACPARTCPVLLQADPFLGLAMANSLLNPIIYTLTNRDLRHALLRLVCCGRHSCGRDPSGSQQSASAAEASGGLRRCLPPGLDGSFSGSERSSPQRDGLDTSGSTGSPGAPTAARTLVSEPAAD
Description: Aequorin assay, agonist potency, CHO-A21-EDG8#12 cells. As to conditions: agonist mode, aequorin luminescence; read-out: S1P5 EC50 range #. The essentials:
(§1)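 CHO cells coexpressing receptor, mitochondrial aequorin and Gαqi5 (S1P3 pool: GNA16) were loaded overnight at RT with 5 μM coelenterazine h in 0.1% fatty-acid-free BSA buffer. Cells were injected onto compound, luminescence recorded 90 s and integrated, normalised to digitonin or 20 μM ATP; sigmoidal fit.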

Experiment [3] addresses T3, human EDG1 (S1PR1) receptor (Homo sapiens, UniProt P21453).
T3 construct: expressed in transfected cells; host or cells: CHO-A21-Edg1#17 (CHO clone co-expressing mitochondrial aequorin and chimaeric Gaqi5)
Description: Aequorin assay, agonist potency, CHO-A21-Edg1#17 cells. To be noted: agonist mode, aequorin luminescence; read-out: S1P1 EC50. The essentials: as §1

Experiment [4] addresses T4, human EDG3 (S1PR3) receptor (Homo sapiens, UniProt Q99500).
T4 construct: expressed in transfected cells; host or cells: CHO-A2-S1P3 Mix (CHO cell pool co-expressing mitochondrial aequorin and GNA16)
Description: Aequorin assay, agonist potency, CHO-A2-S1P3 Mix cells. To be noted: agonist mode, aequorin luminescence. The protocol: Agonistic activity was measured as described below.
Cell clone CHO-A21-Edg1#17 carries the transgenes human EDG1 (S1PR1) receptor (Accession number NP_001391.2), mitochondrially targeted Aequorin (active part corresponds to accession number 1SL8_A) and chimaeric Gaqi5=Gaq modified with the 5 C-terminal amino-acids replaced with those of the Gai protein (DCGLF). CHO-A2-S1P3 Mix is a cell pool ectopically expressing human EDG3 (S1PR3) receptor (Accession number NP_005217.2) mitochondrially targeted Aequorin (active part has a sequence similar to accession number AY601106.1) and GNA16 (Accession number NP_002059.3). Cell clone CHO-A21-EDG8#12 carries the transgenes human EDG8 (S1PR5) receptor (Acession number NP_110387.1), mitochondrially expressed Aequorin (active part corresponds to accession number 1SL8_A) and chimaeric Gaqi5 (Gaq modified to present the 5 last amino-acids of the Gai protein “DCGLF”; see above). Cells are grown to mid-log phase in culture medium (HAM's F12, 10% FBS, 100 IU/mL penicillin, 100 μg/mL streptomycin, 250 μg/mL Zeocin, 400 μg/mL G418). 18 hours prior to frozen cells preparation, the medium is changed to remove the antibiotics.
18 hours prior to the test, vials of frozen cells are quickly thawed in a 37° C. water bath, cells are recovered by centrifugation and resuspended in assay buffer (DMEM/HAM's F12 with HEPES, without phenol red+0.1% fatty acid-free BSA). Cells are gently agitated in suspension overnight at RT in presence of 5 μM of Coelenterazine h (Molecular Probes). On the day of the test, cells are diluted to their final working concentrations in assay buffer and agitated in suspension for 1 h at RT. Cells are then placed in the luminescence reader (Hamamatsu Functional Drug Screening System 6000, FDSS6000). During cells incubation, compounds are prepared in 100% DMSO, and subsequently diluted in assay buffer. Compounds are then dispensed in the assay plate (black, clear-bottom, 384-well plate). After binding of agonists to the human S1P receptor the intracellular calcium concentration increases and binding of calcium to the Aequorin/Coelenterazine complex leads to an oxidation reaction of coelenterazine, which results in the production of Aequorin, coelenteramide, CO2 and light (Dmax 469 nm). The luminescent response is dependent on the agonist concentration. For agonist testing, 30 μL of cell suspension are injected on 30 μL of test compound or reference agonist in the assay plate. The resulting emission of light is recorded for 90 seconds using the FDSS6000. Dose response curves with the reference compounds are performed before testing the compounds. S1P is the reference agonist and JTE-013 the reference antagonist for S1P2.
Luminescence data are integrated over the reading interval for agonist and antagonist modes. To standardize the emission of recorded light (determination of the “100% signal”) across plates and across different experiments, some of the wells contain 100 μM digitonin or a saturating concentration of ATP (20 μM). Plates also contain the reference agonist at a concentration equivalent to the EC80 obtained during the test validation and the EC100. Dose-response data from test compounds were analyzed with XLfit (IDBS) software using nonlinear regression applied to a sigmoidal dose-response model and the following equation: […]

T4 sequence (Q99500 whole entry): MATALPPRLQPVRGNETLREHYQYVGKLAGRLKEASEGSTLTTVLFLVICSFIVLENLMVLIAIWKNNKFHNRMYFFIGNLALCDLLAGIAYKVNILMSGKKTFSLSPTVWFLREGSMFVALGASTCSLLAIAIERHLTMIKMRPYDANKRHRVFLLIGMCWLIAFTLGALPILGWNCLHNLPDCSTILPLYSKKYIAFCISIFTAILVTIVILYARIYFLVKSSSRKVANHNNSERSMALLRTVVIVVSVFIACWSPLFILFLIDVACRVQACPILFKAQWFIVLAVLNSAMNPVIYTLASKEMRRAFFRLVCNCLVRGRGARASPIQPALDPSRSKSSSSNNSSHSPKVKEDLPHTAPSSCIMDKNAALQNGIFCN
T3 sequence (P21453 whole entry): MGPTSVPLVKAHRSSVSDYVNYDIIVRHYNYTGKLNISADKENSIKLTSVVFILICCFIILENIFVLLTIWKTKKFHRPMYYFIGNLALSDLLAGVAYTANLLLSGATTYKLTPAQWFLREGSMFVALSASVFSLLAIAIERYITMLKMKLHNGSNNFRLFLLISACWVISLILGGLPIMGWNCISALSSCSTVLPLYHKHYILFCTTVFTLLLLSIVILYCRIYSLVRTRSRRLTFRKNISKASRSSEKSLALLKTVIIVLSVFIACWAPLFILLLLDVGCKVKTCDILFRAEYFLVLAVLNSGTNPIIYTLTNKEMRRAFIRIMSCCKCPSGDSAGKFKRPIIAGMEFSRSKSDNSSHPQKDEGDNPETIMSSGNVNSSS

As for `O=C(O)C1(CN2CC3(Cc4ccc(-c5ccc(OCc6cccc(Cl)c6)cc5)cc4C3)C2)CC1` [Example 52, 1-((5′-(4-((3-chlorobenzyl)oxy)phenyl)-1′,3′-dihydrospiro[azetidine-3,2′-inden]-1-yl)methyl)cyclopropanecarboxylic acid], the EC50 (commonly the midpoint of the concentration-response curve) in experiment [1] was less than 1000 nM; in experiment [2], 10 to 100 nM; in experiment [3], more than 1000 nM; in experiment [4] it was more than 1000 nM.
For `O=C(O)C1(CN2CC3(Cc4ccc(-c5ccc(OCC6CCCCC6)cc5)cc4C3)C2)CC1` [Example 51, 1-((5′-(4-(cyclohexylmethoxy)phenyl)-1′,3′-dihydrospiro[azetidine-3,2′-inden]-1-yl)methyl)cyclopropanecarboxylic acid], the EC50 in experiment [1] is more than 1000 nM; in experiment [2] it was 10 to 100 nM; in experiment [3], more than 1000 nM; in experiment [4], more than 1000 nM.
Consider `O=C(O)CN1CC2(Cc3ccc(OCc4cc(F)cc(F)c4)cc3C2)C1` [Example 14, 2-(5′-((3,5-difluorobenzyl)oxy)-1′,3′-dihydrospiro[azetidine-3,2′-inden]-1-yl)acetic acid], for which the EC50 in experiment [1] is less than 1000 nM; in experiment [2], 10 to 100 nM; in experiment [3], more than 1000 nM; in experiment [4] it was more than 1000 nM.
In the case of `O=C(O)C1(CN2CC3(Cc4ccc(-c5ccc(OCc6ccc(Cl)cc6)cc5)cc4C3)C2)CC1` [Example 108, 1-((5′-(4-((4-chlorobenzyl)oxy)phenyl)-1′,3′-dihydrospiro[azetidine-3,2′-inden]-1-yl)methyl)cyclopropanecarboxylic acid], the EC50 in experiment [1] is more than 1000 nM; in experiment [2], 10 to 100 nM; in experiment [3], more than 1000 nM; in experiment [4] it was more than 1000 nM.
Take `CCc1cccc(Cl)c1COc1ccc2c(c1)CC1(C2)CN(CC2(C(=O)O)CC2)C1` [Example 28, 1-((5′-((2-chloro-6-ethylbenzyl)oxy)-1′,3′-dihydrospiro[azetidine-3,2′-inden]-1-yl)methyl)cyclopropanecarboxylic acid]: the EC50 was less than 1000 nM in experiment [1], not above 10 nM in experiment [2], more than 1000 nM in experiment [3] and more than 1000 nM in experiment [4].
